Assay results published in the supplement of paper PMC9386025.

Assays:
Experiment in all cases: drug sensitivity score (DSS) (DSS (dimensionless)); higher = more sensitive (stronger drug response)
[1] = test system: FIMM-PDC1 (patient-derived ovarian cancer cells); details: genetic perturbation: none (patient-derived cell culture)
Outline: (§1)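 Drugs were pre-plated in 384-well plates at five concentrations covering a 10,000-fold range, and 1 000 – 1 500 cells per well were added from patient-derived cultures or from ovarian cancer cell lines whose shRNA had been induced with 100 ng/ml doxycycline for three days or longer. Incubation lasted three days at 37 °C under 5.0 % CO2. A PHERAstar FS then recorded CellTiter-Glo luminescence as the readout of viability. A drug sensitivity score, calculated as described before, summarised the dose-response curve of every drug.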

[2] = test system: FIMM-PDC2 (patient-derived ovarian cancer cells); details: genetic perturbation: none (patient-derived cell culture)
Outline: as §1

[3] = test system: FIMM-PDC3 (patient-derived ovarian cancer cells); details: genetic perturbation: none (patient-derived cell culture)
Outline: as §1

[4] = test system: FIMM-PDC4 (patient-derived ovarian cancer cells); details: genetic perturbation: none (patient-derived cell culture)
Outline: as §1

[5] = test system: FIMM-PDC5 (patient-derived ovarian cancer cells); details: genetic perturbation: none (patient-derived cell culture)
Outline: as §1

[6] = test system: FIMM-PDC6 (patient-derived ovarian cancer cells); details: genetic perturbation: none (patient-derived cell culture)
Outline: as §1

[7] = test system: FIMM-PDC7 (patient-derived ovarian cancer cells); details: genetic perturbation: none (patient-derived cell culture)
Outline: as §1

[8] = test system: JHOS2
Outline: as §1

[9] = test system: Kuramochi
Outline: as §1

[10] = test system: OVSAHO
Outline: as §1

[11] = genetic perturbation: DOX-induced PTK7 shRNA knockdown
[12] = genetic perturbation: DOX-induced control shRNA

CC(C)[C@@H](CS(=O)(=O)C(C)C)N1C(=O)[C@@](C)(CC(=O)O)C[C@H](c2cccc(Cl)c2)[C@H]1c1ccc(Cl)cc1 [AMG-232]
drug sensitivity score [1]: < 0
drug sensitivity score [2]: < 0
drug sensitivity score [3]: < 0
drug sensitivity score [4]: 7.1
drug sensitivity score [5]: 20.3
drug sensitivity score [6]: 14.2
drug sensitivity score [7]: 15
drug sensitivity score [8, 11]: < 0
drug sensitivity score [8, 12]: < 0
drug sensitivity score [9, 11]: < 0
drug sensitivity score [9, 12]: < 0
drug sensitivity score [10, 11]: < 0
drug sensitivity score [10, 12]: < 0

CN[C@@H](C)C(=O)N[C@H]1CN(C(=O)CC(C)C)CC[C@H]2CC[C@@H](C(=O)NC(c3ccccc3)c3ccccc3)N2C1=O [AT-406]
drug sensitivity score [1]: 7.9
drug sensitivity score [2]: 10.5
drug sensitivity score [3]: 10.8
drug sensitivity score [4]: 0.9
drug sensitivity score [5]: 1.5
drug sensitivity score [6]: 5.3
drug sensitivity score [7]: 0.6
drug sensitivity score [8, 11]: 16.5
drug sensitivity score [8, 12]: 10.2
drug sensitivity score [9, 11]: 1.1
drug sensitivity score [9, 12]: 0.3
drug sensitivity score [10, 11]: 4.3
drug sensitivity score [10, 12]: < 0

Cn1cnc2c(F)c(Nc3ccc(Br)cc3Cl)c(C(=O)NOCCO)cc21 [Selumetinib]
drug sensitivity score [1]: < 0
drug sensitivity score [3]: 4.9
drug sensitivity score [4]: 10
drug sensitivity score [5]: 11.4
drug sensitivity score [6]: 7.6
drug sensitivity score [7]: 10.3
drug sensitivity score [8, 11]: 0.7
drug sensitivity score [8, 12]: 8.6
drug sensitivity score [9, 11]: 7.5
drug sensitivity score [9, 12]: 2
drug sensitivity score [10, 11]: 13.5
drug sensitivity score [10, 12]: 1.7

Nc1nc2cc(-c3ccc4ncc(C(=O)N5CCOCC5)n4c3)ccc2o1 [Serabelisib]
drug sensitivity score [1]: 0.6
drug sensitivity score [3]: 0.6
drug sensitivity score [4]: 4.1
drug sensitivity score [5]: 5.2
drug sensitivity score [6]: 3.1
drug sensitivity score [7]: 9.1
drug sensitivity score [8, 11]: 0.9
drug sensitivity score [8, 12]: 0.2
drug sensitivity score [9, 11]: < 0
drug sensitivity score [9, 12]: < 0
drug sensitivity score [10, 11]: 0.8
drug sensitivity score [10, 12]: < 0

O=C(O)c1ccc2c(c1)nc(Nc1cccc(Cl)c1)c1ccncc12 [Silmitasertib]
drug sensitivity score [1]: 3.2
drug sensitivity score [3]: 4.8
drug sensitivity score [4]: 1.5
drug sensitivity score [5]: 6.6
drug sensitivity score [6]: < 0
drug sensitivity score [7]: 2.8
drug sensitivity score [8, 11]: 3.3
drug sensitivity score [8, 12]: 3.6
drug sensitivity score [9, 11]: 5.55
drug sensitivity score [9, 12]: 4.5
drug sensitivity score [10, 11]: 5.5
drug sensitivity score [10, 12]: 5.8

CCS(=O)(=O)c1cccc(-c2cc(C(=O)NC3CCN(C)CC3)c(C)c3[nH]c4ncc(C)cc4c23)c1 [TAK-901]
drug sensitivity score [1]: 4.85
drug sensitivity score [3]: 4.3
drug sensitivity score [4]: 7.9
drug sensitivity score [5]: 6.5
drug sensitivity score [6]: 7.3
drug sensitivity score [7]: 3
drug sensitivity score [8, 11]: 3.2
drug sensitivity score [8, 12]: 5.3
drug sensitivity score [9, 11]: 7.3
drug sensitivity score [9, 12]: 6.4
drug sensitivity score [10, 11]: 8.3
drug sensitivity score [10, 12]: 5.7

COc1cc(Nc2ncc(F)c(Nc3ccc4c(n3)NC(=O)C(C)(C)O4)n2)cc(OC)c1OC [Tamatinib]
drug sensitivity score [1]: < 0
drug sensitivity score [3]: 3.8
drug sensitivity score [4]: 6.4
drug sensitivity score [5]: 12.9
drug sensitivity score [6]: 1.6
drug sensitivity score [7]: 8.6
drug sensitivity score [8, 11]: 4.2
drug sensitivity score [8, 12]: 0.1
drug sensitivity score [9, 11]: 2.9
drug sensitivity score [9, 12]: 1.1
drug sensitivity score [10, 11]: 7
drug sensitivity score [10, 12]: 1.1

Cc1nc(-c2cn3c(n2)-c2ccc(-c4cnn(C(C)(C)C(N)=O)c4)cc2OCC3)n(C(C)C)n1 [Taselisib]
drug sensitivity score [1]: 4.2
drug sensitivity score [3]: 6.7
drug sensitivity score [4]: 9.5
drug sensitivity score [5]: 11.6
drug sensitivity score [6]: 6.3
drug sensitivity score [7]: 12.3
drug sensitivity score [8, 11]: 4.3
drug sensitivity score [8, 12]: 2.4
drug sensitivity score [9, 11]: 4.5
drug sensitivity score [9, 12]: 1.1
drug sensitivity score [10, 11]: 3.1
drug sensitivity score [10, 12]: 4.7

CO[C@H]1C[C@@H]2CC[C@@H](C)[C@@](O)(O2)C(=O)C(=O)N2CCCC[C@H]2C(=O)O[C@H]([C@H](C)C[C@@H]2CC[C@@H](OC(=O)C(C)(CO)CO)[C@H](OC)C2)CC(=O)[C@H](C)/C=C(\C)[C@@H](O)[C@@H](OC)C(=O)[C@H](C)C[C@H](C)/C=C/C=C/C=C/1C [Temsirolimus]
drug sensitivity score [1]: 2.25
drug sensitivity score [3]: 2.8
drug sensitivity score [4]: 8.7
drug sensitivity score [5]: 12.2
drug sensitivity score [6]: 5.7
drug sensitivity score [7]: 4
drug sensitivity score [8, 11]: < 0
drug sensitivity score [8, 12]: 7.2
drug sensitivity score [9, 11]: 4.5
drug sensitivity score [9, 12]: 2.7
drug sensitivity score [10, 11]: 2.3
drug sensitivity score [10, 12]: 6.6

COc1cc2c(Nc3ccc(Cl)c(Cl)c3F)ncnc2cc1OC[C@@H]1C[C@@H]2CN(C)C[C@@H]2C1 [Tesevatinib]
drug sensitivity score [1]: 2.25
drug sensitivity score [3]: 13.6
drug sensitivity score [4]: 19.2
drug sensitivity score [5]: 23.9
drug sensitivity score [6]: 16.4
drug sensitivity score [7]: 11.5
drug sensitivity score [8, 11]: < 0
drug sensitivity score [8, 12]: 3.1
drug sensitivity score [9, 11]: 1.35
drug sensitivity score [9, 12]: 1
drug sensitivity score [10, 11]: 0.5
drug sensitivity score [10, 12]: 1.9

Nc1nc2[nH]cnc2c(=S)[nH]1 [Thioguanine]
drug sensitivity score [1]: 5.75
drug sensitivity score [3]: < 0
drug sensitivity score [4]: 6.6
drug sensitivity score [5]: 6.4
drug sensitivity score [6]: 2.9
drug sensitivity score [7]: 4.7
drug sensitivity score [8, 11]: 1.9
drug sensitivity score [8, 12]: 1
drug sensitivity score [9, 11]: 9.75
drug sensitivity score [9, 12]: 7
drug sensitivity score [10, 11]: 4.9
drug sensitivity score [10, 12]: 8.1

CC[C@@]1(O)C(=O)OCc2c1cc1n(c2=O)Cc2cc3c(CN(C)C)c(O)ccc3nc2-1 [Topotecan]
drug sensitivity score [1]: 10.3
drug sensitivity score [3]: 12.4
drug sensitivity score [4]: 7.8
drug sensitivity score [5]: 14.4
drug sensitivity score [6]: 12.8
drug sensitivity score [7]: 12.2
drug sensitivity score [8, 11]: 10.5
drug sensitivity score [8, 12]: 11.5
drug sensitivity score [9, 11]: 6.85
drug sensitivity score [9, 12]: 6.4
drug sensitivity score [10, 11]: 8.7
drug sensitivity score [10, 12]: 7.5

CC(C)C[C@@H](C(=O)N[C@H](C(=O)OC1CCCC1)c1ccccc1)[C@H](O)C(=O)NO [Tosedostat]
drug sensitivity score [1]: 12.6
drug sensitivity score [3]: 14.9
drug sensitivity score [4]: 9.5
drug sensitivity score [5]: 12.1
drug sensitivity score [6]: 11.1
drug sensitivity score [7]: 6.4
drug sensitivity score [8, 11]: 29.8
drug sensitivity score [8, 12]: 14.2
drug sensitivity score [9, 11]: 0.75
drug sensitivity score [9, 12]: 0.7
drug sensitivity score [10, 11]: 3.1
drug sensitivity score [10, 12]: 6.4

Cc1cc(Nc2cc(N3CCN(C)CC3)nc(Sc3ccc(NC(=O)C4CC4)cc3)n2)n[nH]1 [Tozasertib]
drug sensitivity score [1]: 2.9
drug sensitivity score [3]: 4.2
drug sensitivity score [4]: 5.7
drug sensitivity score [5]: 6.2
drug sensitivity score [6]: 1.6
drug sensitivity score [7]: 3.7
drug sensitivity score [8, 11]: 4.1
drug sensitivity score [8, 12]: 4.3
drug sensitivity score [9, 11]: 4.2
drug sensitivity score [9, 12]: 2.4
drug sensitivity score [10, 11]: 3.9
drug sensitivity score [10, 12]: 1.9

CC(=O)Nc1cccc(-n2c(=O)n(C3CC3)c(=O)c3c(Nc4ccc(I)cc4F)n(C)c(=O)c(C)c32)c1 [Trametinib]
drug sensitivity score [1]: 0.75
drug sensitivity score [3]: 4.8
drug sensitivity score [4]: 13
drug sensitivity score [5]: 17.2
drug sensitivity score [6]: 10.3
drug sensitivity score [7]: 9
drug sensitivity score [8, 11]: 1.6
drug sensitivity score [8, 12]: 12.5
drug sensitivity score [9, 11]: 8.9
drug sensitivity score [9, 12]: 4.5
drug sensitivity score [10, 11]: 10.6
drug sensitivity score [10, 12]: 7.3
